The values that follow come from patent US11534114B2, “18F labeled amino acids, derivatives thereof and method of making same” (SIMON FRASER UNIVERSITY, priority 2016, dated 2022).

Bounds are passed on as bounds.

The data set deals with U-87 tumor. The data set can be described thus: Dynamic PET/CT time-activity curves of accumulation in selected organs. The note with it: time-activity curves (FIG. 41). Type of data set: in vivo, mice.

`CC(C)([18F])CC[C@H](N)C(=O)O` [5-[^18F]FHL, 5-[^18F]fluorohomoleucine]: the “course of activity in U-87 tumor and pancreas after the peak” value (after peak accumulation) was “slow progressive efflux”. For the same molecule, the “time of peak accumulation in the U-87 tumor and pancreas” value (intravenous injection, mice bearing U-87 xenograft, 60 min dynamic scan) is less than 10 min.
